Where two headings read alike, the source gives them in different places.
Assays:
[1] = tested on: bone marrow progenitor cells; test: Bone marrow progenitor cell clonogenic assay (CFU-GM), mouse; conditions: for IC50: read-out: Mouse CFU-GM (IC50 nM) THLD
Description: (§1) A clonogenic assay was performed using bone marrow progenitor cells derived from the blood of mice and humans.

[2] = tested on: bone marrow progenitor cells; test: Bone marrow progenitor cell clonogenic assay (CFU-GM), human; conditions: for IC50: read-out: Human CFU-GM (IC50 nM) THLD
Description: as §1

[3] = tested on: human non small cell lung cancer cell line H460; test: Antiproliferation (cytotoxicity) assay, 72 hrs under air, Alamar Blue; assay type: cell-based; conditions: read-out: IC50
[4] = tested on: human prostate cancer cell line PC-3; test: Antiproliferation assay, 72 hrs under air, Alamar Blue; assay type: cell-based; conditions: read-out: PC3 IC50
[5] = tested on: human colon cancer cell line HT-29; test: as above; assay type: cell-based; conditions: read-out: HT29 IC50
[6] = tested on: human melanoma cell line SKMEL2; test: as above; assay type: cell-based; conditions: read-out: SKMEL-2 IC50
[7] = tested on: human melanoma cell line SKMEL-28; test: as above; assay type: cell-based
[8] = tested on: human melanoma cell line A375; test: as above; assay type: cell-based
[9] = tested on: human melanoma cell line MAMLE-3M; test: as above; assay type: cell-based
[10] = tested on: human prostate cancer cell line DU145; test: as above; assay type: cell-based
[11] = tested on: human prostate cancer cell line LNCap; test: as above; assay type: cell-based
[12] = tested on: human ovarian cancer cell line IGROV-1; test: as above; assay type: cell-based
[13] = tested on: BCRP, which over expressed the breast cancer resistance protein; test: Efflux pump drug resistance, antiproliferation assay, BCRP over expressing line; conditions: for 5d BCRP/pcDNA / 3d BCRP/pcDNA: ratio of IC50s, BCRP over expressing versus parent line; for 5d BCRP/pcDNA: 5 days; for 3d BCRP/pcDNA: 3 days
Description: (§2) The compounds were screened for cytotoxicity using human non small cell lung cancer cell line H460. […]
(§3) Cellular drug resistance was determined using the antiproliferation assay described above.

[14] = tested on: Messa ovarian carcinoma cell line; test: Efflux pump drug resistance, antiproliferation assay, parent line; assay type: cell-based; conditions: Homo sapiens, MES-SA, air
Description: […] Cells were treated with test compounds at various concentrations under air for 72 hrs, and then cell viability and proliferation were assessed by Alamar Blue staining.
as §3

[15] = tested on: DX5, which over expresses the MDR 1 efflux pump; test: Efflux pump drug resistance, antiproliferation assay, MDR 1 over expressing line; assay type: cell-based; conditions: air
Description: as §2, §3

[16] = tested on: H69 small cell lung cancer line; test: Efflux pump drug resistance, antiproliferation assay, parent line; assay type: cell-based; conditions: air
Description: as §2, §3

pcDNA = test: as above; assay type: cell-based; conditions: air
Description: as §2, §3

[17] = tested on: MRP1 over expressing H69AR line; test: Efflux pump drug resistance, antiproliferation assay, MRP1 over expressing line; assay type: cell-based; conditions: Homo sapiens, air
Description: as §2, §3

[18] = Bone marrow progenitor cell clonogenic assay (CFU-GM), mouse; conditions: mouse
Description: as §1

[19] = Bone marrow progenitor cell clonogenic assay (CFU-GM), human; conditions: human
Description: as §1

H46O cells = test: Selective hypoxic activation of 14-nitro prodrugs in cell culture; assay type: cell-based, human; conditions: TH1332 at 5 micromolar, 24 hour
Description: H46O cells were grown to a confluent monolayer and then the 14-nitro TH1332 prodrug was added to the media at 5 micromolar concentration. Incubations were done for 24 hour either under air or nitrogen (hypoxia), media and cells were recovered, sonicated and soluble extracts were isolated by acetonitrile precipitation of proteins. The level of amino TH1338 active cytotoxin were quantitated by liquid chromotagraphy mass spectra analysis. The equivalent of 70 nanomolar TH1338 was produced under hypoxia with undetectable levels being produced under air (less than 5 nanomolar).
The analogous experiment was preformed using 1 micromolar concentration of the 14-nitro derivative TH1431. After 24 hr, 180 nanomolar of the 14 amino TH1499 was produced under nitrogen with undetectable levels produced under air (less than 5 nanomolar).

human colon cancer HT-29 = test: Xenograft model, subcutaneous, tumor growth inhibition and body weight loss
Description: (§4) The first three models were produced by subcutaneous implantation of the appropriate number of cells into the flank of the animals. When tumor size was approximately 150 mm^3, animals were randomized into groups of 10 mice each for dosing. One arm was dosed with only vehicle and the results used for the efficacy calculations. […] TGI=(1−T/C) %. T/C ratio was calculated as T/C=(Tn−Ti)/(Cn−Ci), where Tn is tumor volume in treatment group on Day n, and Ti is the initial tumor volume in the treatment group. Cn is the tumor volume of the vehicle group on the last day of measurement. Ci is the initial tumor volume in the vehicle control group. Day n is the last measurement taken when all the animals in the vehicle group were not yet euthanized. Animals were euthanized when tumor volumes grew larger than 2000 mm^3.

[20] = tested on: human non small cell lung cancer H-460; test: as above
Description: as §4

[21] = tested on: human prostate cancer PC-3; test: as above
Description: as §4

[22] = Brain penetration, AUC in brain versus AUC plasma; conditions: mouse
Description: Certain compounds of the invention were assessed for brain penetration by comparing the AUC for plasma exposure versus the AUC in brain.

[23] = In vivo pharmacokinetics, oral gavage; conditions: CD, mouse, in vivo, po; for AUC / Cmax: 50 mg/kg
Description: The data normalized to a 50 mg/kg dose are shown below (compounds were dosed at either 25 or 50 mg/kg).

[24] = tested on: IGROV1 human ovarian cancer cells; test: Xenograft model of metastatic ovarian cancer (i.p.), survival; conditions: IGROV1 i.p., median survival treated / vehicle times 100; PO, QD × 5/wk, 4 weeks, 150 mg/Kg
Description: One arm was dosed with only vehicle and the results used for the efficacy calculations. […] A xenograft model of metastatic ovarian cancer was set up by the intraperitoneal (i.p) injection of 3×10^6 IGROV1 human ovarian cancer cells in nude mice. Mice were evaluated twice a week for morbidity and mortality. Kaplan-Meier survival curves were plotted.

[25] = Homo sapiens, NCI-H460, H460, inhibition of proliferation, 72 hrs under air
[26] = 120 h, 5 days, read-out: Air 5d MESSA prol. IC50
[27] = MDR1, 120 h, 5 days, read-out: Air 5d DX5 prol. IC50
[28] = 120 h, 5 days, read-out: Air 5d H69 prol. IC50
[29] = 120 h, 5 days, read-out: Air 5d pcDNA prol. IC50
[30] = 120 h, 5 days, read-out: Air 5d H69ar (MRP1) prol. IC50
[31] = 120 h, read-out: Air 5d BCRP prol. IC50 nM, air, 5 days
[32] = 72 h, 3 days, read-out: Air 3d MESSA prol. IC50
[33] = MDR1, 72 h, 3 days, read-out: Air 3d DX5 prol. IC50
[34] = 72 h, 3 days, read-out: Air 3d pcDNA prol. IC50
[35] = 72 h, read-out: Air 3d BCRP prol. IC50 nM, air, 3 days

Row | Compound | IC50 [3, 25] | IC50 [14, 26] | IC50 [15, 27] | IC50 [16, 28] | IC50 (pcDNA; [29]) | IC50 [17, 30] | IC50 [13, 31] | 5d BCRP/pcDNA [13] | IC50 [14, 32] | IC50 [15, 33] | IC50 (pcDNA; [34]) | IC50 [13, 35] | 3d BCRP/pcDNA [13] | IC90 [18] | IC50 ([1]; Mus musculus, CFU-GM) | IC90 [19] | IC50 ([2]; Homo sapiens, CFU-GM) | half-life [23] | AUC [23] | Cmax [23] | also measured
1 | CC[C@@]1(O)C(=O)OCc2c1cc1n(c2=O)Cc2cc3c(N)cccc3nc2-1 [9-amino camptothecin, reference compound] | – | – | – | – | – | – | – | – | – | – | – | – | – | – | – | – | – | – | – | – | IC50 ([1]; mouse bone marrow progenitor cells, clonogenic assay): 90 nM; IC90 ([1]; read-out: Mouse CFU-GM (IC90 nM) THLD, IC90, mouse bone marrow progenitor cells, clonogenic assay): 700 nM; IC50 ([2]; human bone marrow progenitor cells, clonogenic assay): 1.2 nM; IC90 ([2]; read-out: Human CFU-GM (IC90 nM) THLD, IC90, human bone marrow progenitor cells, clonogenic assay): 8 nM
2 | CCc1c2c(nc3ccc(O)cc13)-c1cc3c(c(=O)n1C2)COC(=O)[C@]3(O)CC [SN-38, reference compound] | – | – | – | – | – | – | – | – | – | – | – | – | – | – | – | – | – | – | – | – | IC50 [3]: 54 nM; IC50 [4]: 4 nM; IC50 [5]: 224 nM; IC50 [6]: 100 nM; IC50 [7]: 10000 nM; IC50 [8]: 4 nM; IC50 [9]: 200 nM; IC50 [10]: 4 nM; IC50 [11]: 9 nM; IC50 [12]: 30 nM; ratio BCRP over expressing line versus the parent cell line ([13]; not told): > 220; IC50 [1]: 110 nM; IC50 [2]: 1.3 nM
3 | CC[C@@]1(O)C(=O)OCc2c1c([N+](=O)[O-])c1n(c2=O)Cc2cc3ccccc3nc2-1 [TH1317] | > 1000 nM | > 500 nM | > 500 nM | 933 nM | 57 nM | 1320 nM | 82 nM | 1.4386 | – | – | – | – | – | – | – | – | – | – | – | – | –
4 | CCc1c2c(nc3ccccc13)-c1c([N+](=O)[O-])c3c(c(=O)n1C2)COC(=O)[C@]3(O)CC [TH1332] | 66 nM | 2330 nM | 2740 nM | 4220 nM | 24 nM | 8710 nM | 21 nM | 0.875 | 5300 nM | 6300 nM | 1800 nM | 2300 nM | 1.3 | > 10000 nM | > 10000 nM | > 100 nM | > 1000 nM | 6.25 h | 1820 ng·h/mL | 380 ng/mL | TH1338 produced under air (H46O cells; air, undetectable levels): less than 5 nanomolar; TH1338 produced under hypoxia (H46O cells; nitrogen (hypoxia), LC-MS): 70 nM; TGI (%) (human colon cancer HT-29; HT29, PO, QD × 5/wk, 4 weeks, 150 mg/Kg): 62.8%; Max. BWL (%) (human colon cancer HT-29; mouse, in vivo, po, 150 mg/kg): 0%; TGI (%) ([20]; H460, PO, QD × 5/wk, 2 weeks, 150 mg/Kg): 91.4%; Max. BWL (%) ([20]; mouse, in vivo, po, 150 mg/kg): 11.4%; TGI (%) ([21]; PC3, PO, QD × 5/wk, 2 weeks, 150 mg/Kg): 103%; Max. BWL (%) ([21]; mouse, in vivo, po, 150 mg/kg): 1.8%; Kp [22]: 0.18; T/C [24]: 159
5 | CC[C@@]1(O)C(=O)OCc2c1c(N)c1n(c2=O)Cc2cc3c(N)cccc3nc2-1 [TH1386] | 71 nM | – | – | – | – | – | – | – | 52 nM | 28 nM | 5.6 nM | 26.6 nM | 4.75 | 3500 nM | 680 nM | 210 nM | 30 nM | 0.427 h | 3100 ng·h/mL | 5860 ng/mL | IC50 ([16]; 72 h, 3 days, read-out: Air 3d H69 prol. IC50): 141 nM; IC50 ([17]; 72 h, 3 days, read-out: Air 3d H69ar (MRP1) prol. IC50): 195 nM

— patent publication US8575188B2 (priority 2009, dated 2013)
